Reference: patent US11220502B2, “Sulfone compounds and derivatives for the treatment and prophylaxis of virus infection” (Hoffmann-La Roche Inc., priority 2018, dated 2022)
Where two headings read alike, the source gives them in different places.

Target: T1, human TLR7 (Homo sapiens, UniProt Q9NYK1)
T1 sequence (Q9NYK1 27-1049): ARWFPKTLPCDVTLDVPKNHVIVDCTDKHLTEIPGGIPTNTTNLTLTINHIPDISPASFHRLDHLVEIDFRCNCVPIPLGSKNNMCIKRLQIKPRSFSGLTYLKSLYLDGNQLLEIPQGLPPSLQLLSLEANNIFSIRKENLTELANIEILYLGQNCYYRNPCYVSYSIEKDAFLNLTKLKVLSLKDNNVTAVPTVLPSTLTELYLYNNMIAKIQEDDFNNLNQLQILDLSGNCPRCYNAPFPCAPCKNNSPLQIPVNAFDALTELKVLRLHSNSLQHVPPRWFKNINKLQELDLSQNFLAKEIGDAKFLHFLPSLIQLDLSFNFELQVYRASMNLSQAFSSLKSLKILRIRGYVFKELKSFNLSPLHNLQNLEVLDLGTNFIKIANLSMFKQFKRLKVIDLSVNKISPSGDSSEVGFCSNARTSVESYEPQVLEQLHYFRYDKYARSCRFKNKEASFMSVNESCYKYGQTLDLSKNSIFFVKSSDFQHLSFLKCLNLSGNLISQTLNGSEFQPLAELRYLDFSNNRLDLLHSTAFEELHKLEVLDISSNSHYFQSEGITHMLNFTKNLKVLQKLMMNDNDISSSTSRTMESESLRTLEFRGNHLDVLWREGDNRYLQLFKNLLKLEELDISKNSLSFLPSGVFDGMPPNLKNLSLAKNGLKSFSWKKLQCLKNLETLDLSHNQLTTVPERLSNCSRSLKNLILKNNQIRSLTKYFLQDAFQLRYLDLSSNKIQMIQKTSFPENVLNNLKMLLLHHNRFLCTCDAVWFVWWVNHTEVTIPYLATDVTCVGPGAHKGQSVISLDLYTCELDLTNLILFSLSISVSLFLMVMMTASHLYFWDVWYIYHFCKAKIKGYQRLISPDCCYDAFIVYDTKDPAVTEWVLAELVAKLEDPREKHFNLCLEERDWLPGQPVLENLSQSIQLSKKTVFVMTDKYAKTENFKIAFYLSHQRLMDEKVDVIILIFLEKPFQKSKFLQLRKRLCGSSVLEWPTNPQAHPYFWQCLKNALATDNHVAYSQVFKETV
Experiment: HEK293-Blue-hTLR-7 cells assay (SEAP reporter, NF-κB activation)
Format: cell-based
Details: for EC50: HEK293-Blue-hTLR-7 cells, 20 hrs incubation, SEAP reporter; for Ratio (EC50(prodrug)/EC50(active form)): calculated ratio of prodrug EC50 to EC50 of corresponding active form
Text: HEK293-Blue-hTLR-7 Cells Assay
A stable HEK293-Blue-hTLR-7 cell line was purchased from InvivoGen (Cat. #: hkb-ht1r7, San Diego, Calif., USA). These cells were designed for studying the stimulation of human TLR7 by monitoring the activation of NF-κB. A SEAP (secreted embryonic alkaline phosphatase) reporter gene was placed under the control of the IFN-β minimal promoter fused to five NF-κB and AP-1-binding sites. The SEAP was induced by activating NF-κB and AP-1 via stimulating HEK-Blue hTLR7 cells with TLR7 ligands. Therefore the reporter expression was regulated by the NF-κB promoter upon stimulation of human TLR7 for 20 hrs. The cell culture supernatant SEAP reporter activity was determined using QUANTI-Blue™ kit (Cat. #: rep-qb1, Invivogen, San Diego, Calif., USA) at a wavelength of 640 nm, a detection medium that turns purple or blue in the presence of alkaline phosphatase.
HEK293-Blue-hTLR7 cells were incubated at a density of 250,000˜450,000 cells/mL in a volume of 180 μL in a 96-well plate in Dulbecco's Modified Eagle's medium (DMEM) containing 4.5 g/L glucose, 50 U/mL penicillin, […], […], 2 mM L-glutamine, 10% (V/V) heat-inactivated fetal bovine serum for 24 hrs. Then the HEK293-Blue-hTLR-7 cells were incubated with addition of 20 μL test compound in a serial dilution in the presence of final DMSO at 1% and perform incubation under 37° C. in a CO2 incubator for 20 hrs. Then 20 μL of the supernatant from each well was incubated with 180 μL Quanti-blue substrate solution at 37° C. for 2 hrs and the absorbance was read at 620˜655 nm using a spectrophotometer. The signalling pathway that TLR7 activation leads to downstream NF-κB activation has been widely accepted, and therefore similar reporter assay was also widely used for evaluating TLR7 agonist (Tsuneyasu Kaisho and Takashi Tanaka, Trends in Immunology, Volume 29, Issue 7, July 2008, […]; Hiroaki Hemmi et al, Nature Immunology 3, 196-200 (2002)).
The Compounds and Examples of the present invention were tested in HEK293-hTLR-7 assay for their TLR7 agonism activity as described herein and results are listed in Table 1. […] The calculated ratio of EC50(prodrug)/EC50(active form) were within the range from 27.7 to about 8233.

[1] = corresponding active form, read-out: HEK293-hTLR-7 EC50 (Active form)
[2] = prodrug, read-out: HEK293-hTLR-7 EC50 (Prodrug)

Row | Structure (SMILES) | EC50 [1] | EC50 [2] | Ratio (EC50(prodrug)/EC50(active form))
1 | CCCN(C)C(=O)n1c(=O)n(Cc2ccccc2)c2nc(S(=O)(=O)CCC)nc(N)c21 [Example 2, 6-Amino-9-benzyl-N-methyl-8-oxo-N-propyl-2-propylsulfonyl-purine-7-carboxamide] | – | 6.5 µM | 86.7
2 | CCS(=O)(=O)c1nc(N)c2c(n1)n(Cc1ccccc1)c(=O)n2C(=O)N1CCCC1 [Example 5, 6-Amino-9-benzyl-2-ethylsulfonyl-7-(pyrrolidine-1-carbonyl)purin-8-one] | – | 29.7 µM | 174.7
3 | CCCN(C)C(=O)n1c(=O)n(Cc2ccc(F)cc2)c2nc(S(=O)(=O)CC)nc(N)c21 [Example 18, 6-Amino-2-ethylsulfonyl-9-[(4-fluorophenyl)methyl]-N-methyl-8-oxo-N-propyl-purine-7-carboxamide] | – | 2.4 µM | 40
4 | CCCS(=O)(=O)c1nc(N)c2c(n1)n(Cc1ccc(Cl)cc1)c(=O)n2C(=O)N(C)CC [Example 7, 6-Amino-9-[(4-chlorophenyl)methyl]-N-ethyl-N-methyl-8-oxo-2-propylsulfonyl-purine-7-carboxamide] | – | 3.2 µM | 152.4
5 | CCCN(C)C(=O)n1c(=O)n(Cc2ccccc2)c2nc(S(=O)(=O)CC)nc(N)c21 [Example 4, 6-Amino-9-benzyl-2-ethylsulfonyl-N-methyl-8-oxo-N-propyl-purine-7-carboxamide] | – | 87.5 µM | 514.7
6 | CCN(C)C(=O)n1c(=O)n(Cc2ccc(Cl)cc2)c2nc(S(=O)(=O)CC)nc(N)c21 [Example 9, 6-Amino-9-[(4-chlorophenyl)methyl]-N-ethyl-2-ethylsulfonyl-N-methyl-8-oxo-purine-7-carboxamide] | – | 18.2 µM | 219.3
7 | CCCS(=O)(=O)c1nc(N)c2c(n1)n(Cc1ccc(OC)cc1)c(=O)n2C(=O)N(C)CC [Example 21, 6-Amino-N-ethyl-9-[-(4-methoxyphenyl)methyl]-N-methyl-8-oxo-2-propylsulfonyl-purine-7-carboxamide] | – | 24.2 µM | 3025
8 | CCCN(C)C(=O)n1c(=O)n(Cc2ccc(C)cc2)c2nc(S(=O)(=O)CCC)nc(N)c21 [Example 12, 6-Amino-N-methyl-8-oxo-N-propyl-2-propylsulfonyl-9-(p-tolylmethyl)purine-7-carboxamide] | – | 3.3 µM | 50.8
9 | CCN(C)C(=O)n1c(=O)n(Cc2ccc(Br)cc2)c2nc(S(=O)(=O)CC)nc(N)c21 [Example 23, 6-Amino-9-[(4-bromophenyl)methyl]-N-ethyl-2-ethylsulfonyl-N-methyl-8-oxo-purine-7-carboxamide] | – | > 100 µM | >4348
10 | CCCN(C)C(=O)n1c(=O)n(Cc2ccc(OC)cc2)c2nc(S(=O)(=O)CCC)nc(N)c21 [Example 20, 6-Amino-9-[(4-methoxyphenyl)methyl]-N-methyl-8-oxo-N-propyl-2-propylsulfonyl-purine-7-carboxamide] | – | 32.1 µM | 4012.5
11 | CCN(C)C(=O)n1c(=O)n(Cc2ccccc2)c2nc(S(=O)(=O)CC)nc(N)c21 [Example 3, 6-Amino-9-benzyl-N-ethyl-2-ethylsulfonyl-N-methyl-8-oxo-purine-7-carboxamide] | – | 104 µM | 614.1

Other lines, results leading:

Row | EC50 [1] | EC50 [2] | Ratio (EC50(prodrug)/EC50(active form)) | Structure (SMILES)
12 | 0.075 µM | – | – | CCCS(=O)(=O)c1nc(N)c2[nH]c(=O)n(Cc3ccccc3)c2n1 [Compound 1a, 6-amino-9-benzyl-2-propylsulfonyl-7H-purin-8-one]
13 | – | 5.6 µM | 86.2 | CCN(CC)C(=O)n1c(=O)n(Cc2ccc(C)cc2)c2nc(S(=O)(=O)CC)nc(N)c21 [Example 15, 6-Amino-N,N-diethyl-2-ethylsulfonyl-8-oxo-9-(p-tolylmethyl)purine-7-carboxamide]
14 | – | 68.5 µM | 1053 | CCCN(C)C(=O)n1c(=O)n(Cc2ccc(C)cc2)c2nc(S(=O)(=O)CC)nc(N)c21 [Example 14, 6-Amino-2-ethylsulfonyl-N-methyl-8-oxo-N-propyl-9-(p-tolylmethyl)purine-7-carboxamide]
15 | 0.06 µM | – | – | CCS(=O)(=O)c1nc(N)c2[nH]c(=O)n(Cc3ccc(F)cc3)c2n1 [Compound 18a, 6-Amino-2-ethylsulfonyl-9-[(4-fluorophenyl)methyl]-7H-purin-8-one]
16 | – | 494 µM | 8233 | CCN(C)C(=O)n1c(=O)n(Cc2ccc(F)cc2)c2nc(S(=O)(=O)CC)nc(N)c21 [Example 19, 6-Amino-N-ethyl-2-ethylsulfonyl-9-[(4-fluorophenyl)methyl]-N-methyl-8-oxo-purine-7-carboxamide]
17 | 0.008 µM | – | – | CCS(=O)(=O)c1nc(N)c2[nH]c(=O)n(Cc3ccc(F)cc3)c2n1 [Compound 20a, 6-Amino-2-ethylsulfonyl-9-[(4-fluorophenyl)methyl]-7H-purin-8-one]
18 | – | 67 µM | 1030.8 | CCS(=O)(=O)c1nc(N)c2c(n1)n(Cc1ccc(C)cc1)c(=O)n2C(=O)N1CCCC1 [Example 17, 6-Amino-2-ethylsulfonyl-9-(p-tolylmethyl)-7-(pyrrolidine-1-carbonyl)purin-8-one]
19 | 0.021 µM | – | – | CCCS(=O)(=O)c1nc(N)c2[nH]c(=O)n(Cc3ccc(Cl)cc3)c2n1 [Compound 6a, 6-amino-9-[(4-chlorophenyl)methyl]-2-propylsulfonyl-7H-purin-8-one]
20 | – | 2.3 µM | 27.7 | CCS(=O)(=O)c1nc(N)c2c(n1)n(Cc1ccc(Cl)cc1)c(=O)n2C(=O)N(C)C [Example 10, 6-Amino-9-[(4-chlorophenyl)methyl]-2-ethylsulfonyl-N,N-dimethyl-8-oxo-purine-7-carboxamide]
21 | – | 43.9 µM | 445.9 | CCN(C)C(=O)n1c(=O)n(Cc2ccc(C)cc2)c2nc(S(=O)(=O)CC)nc(N)c21 [Example 16, 6-Amino-N-ethyl-2-ethylsulfonyl-N-methyl-8-oxo-9-(p-tolylmethyl)purine-7-carboxamide]
22 | 0.065 µM | – | – | CCCS(=O)(=O)c1nc(N)c2[nH]c(=O)n(Cc3ccc(C)cc3)c2n1 [Compound 12a, 6-amino-2-(propylsulfonyl)-9-(p-tolylmethyl)-7H-purin-8-one]
23 | 0.065 µM | – | – | CCS(=O)(=O)c1nc(N)c2[nH]c(=O)n(Cc3ccc(C)cc3)c2n1 [Compound 14a, 6-amino-2-ethylsulfonyl-9-(p-tolylmethyl)-7H-purin-8-one]
24 | – | 9.6 µM | 147.7 | CCCS(=O)(=O)c1nc(N)c2c(n1)n(Cc1ccc(C)cc1)c(=O)n2C(=O)N(C)CC [Example 13, 6-Amino-N-ethyl-N-methyl-8-oxo-2-propylsulfonyl-9-(p-tolylmethyl)purine-7-carboxamide]
